Laboratory results: ChEMBL document CHEMBL3991601, “The target landscape of clinical kinase drugs” (Science, 2017)
Activity calls are given as the source filed them. For most assays here, no stated cut-off is given here; in the data, actives have a measured Kd and inactives only a lower limit.

What was measured:
[1] = molecular target: Platelet-derived growth factor receptor beta (Homo sapiens, UniProt P09619)
[2] = molecular target: Tyrosine-protein kinase SYK (Homo sapiens, UniProt P43405)
[3] = molecular target: Mitogen-activated protein kinase kinase kinase 4 (Homo sapiens, UniProt Q9Y6R4)
[4] = molecular target: Tyrosine-protein kinase BTK (Homo sapiens, UniProt Q06187)
Sequence of Tyrosine-protein kinase BTK (Q06187 whole entry): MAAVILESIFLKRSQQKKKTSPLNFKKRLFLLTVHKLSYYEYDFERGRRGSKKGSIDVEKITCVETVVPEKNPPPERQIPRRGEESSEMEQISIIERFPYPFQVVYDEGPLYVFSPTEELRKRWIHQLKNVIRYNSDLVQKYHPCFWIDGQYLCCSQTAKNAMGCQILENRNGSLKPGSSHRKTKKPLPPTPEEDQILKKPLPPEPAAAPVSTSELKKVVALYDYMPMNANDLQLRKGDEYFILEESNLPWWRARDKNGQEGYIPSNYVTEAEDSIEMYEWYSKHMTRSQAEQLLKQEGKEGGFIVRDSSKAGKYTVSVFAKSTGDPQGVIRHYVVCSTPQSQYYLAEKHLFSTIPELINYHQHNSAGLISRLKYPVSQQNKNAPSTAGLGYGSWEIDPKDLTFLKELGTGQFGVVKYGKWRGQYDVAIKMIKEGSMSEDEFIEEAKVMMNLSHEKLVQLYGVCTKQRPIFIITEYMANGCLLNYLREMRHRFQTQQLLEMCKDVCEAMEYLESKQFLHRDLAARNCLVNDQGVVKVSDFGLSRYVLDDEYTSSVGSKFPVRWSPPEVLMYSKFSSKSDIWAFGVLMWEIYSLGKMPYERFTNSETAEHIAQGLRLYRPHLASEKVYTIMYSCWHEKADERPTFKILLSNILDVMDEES

[5] = molecular target: T1, Serine/threonine-protein kinase 3 (Homo sapiens, UniProt Q13188)
T1 sequence (Q13188 whole entry): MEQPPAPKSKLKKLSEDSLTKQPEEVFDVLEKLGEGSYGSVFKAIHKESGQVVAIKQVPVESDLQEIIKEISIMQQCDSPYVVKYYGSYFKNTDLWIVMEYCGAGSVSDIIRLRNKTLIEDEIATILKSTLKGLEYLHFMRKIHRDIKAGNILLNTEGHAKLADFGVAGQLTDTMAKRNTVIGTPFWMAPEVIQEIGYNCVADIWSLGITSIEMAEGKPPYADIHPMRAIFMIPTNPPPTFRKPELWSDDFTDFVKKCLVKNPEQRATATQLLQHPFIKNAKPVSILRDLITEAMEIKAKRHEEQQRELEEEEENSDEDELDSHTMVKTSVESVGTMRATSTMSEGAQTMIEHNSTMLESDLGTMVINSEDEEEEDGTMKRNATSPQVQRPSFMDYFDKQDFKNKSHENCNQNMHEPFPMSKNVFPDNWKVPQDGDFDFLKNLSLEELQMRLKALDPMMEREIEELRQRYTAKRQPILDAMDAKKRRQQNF

[6] = molecular target: Adenosine kinase (Homo sapiens, UniProt P55263)
[7] = molecular target: T2, Succinate--CoA ligase [ADP-forming] subunit beta, mitochondrial (Homo sapiens, UniProt Q9P2R7)
T2 sequence (Q9P2R7 whole entry): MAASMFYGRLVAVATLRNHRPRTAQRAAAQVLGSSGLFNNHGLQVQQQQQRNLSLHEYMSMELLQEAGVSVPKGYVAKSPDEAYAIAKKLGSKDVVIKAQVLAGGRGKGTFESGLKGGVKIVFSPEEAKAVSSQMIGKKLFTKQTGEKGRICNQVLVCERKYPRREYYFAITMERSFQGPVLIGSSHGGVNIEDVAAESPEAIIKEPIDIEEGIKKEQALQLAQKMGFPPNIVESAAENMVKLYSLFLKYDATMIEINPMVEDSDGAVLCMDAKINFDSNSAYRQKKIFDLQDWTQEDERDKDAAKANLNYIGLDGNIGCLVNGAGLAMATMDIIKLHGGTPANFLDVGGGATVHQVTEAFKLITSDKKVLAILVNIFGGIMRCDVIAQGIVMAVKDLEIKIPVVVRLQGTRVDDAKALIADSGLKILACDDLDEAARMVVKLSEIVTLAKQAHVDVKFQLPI

[8] = molecular target: Mitogen-activated protein kinase kinase kinase 1 (Homo sapiens, UniProt Q13233)
Sequence of Mitogen-activated protein kinase kinase kinase 1 (Q13233 whole entry): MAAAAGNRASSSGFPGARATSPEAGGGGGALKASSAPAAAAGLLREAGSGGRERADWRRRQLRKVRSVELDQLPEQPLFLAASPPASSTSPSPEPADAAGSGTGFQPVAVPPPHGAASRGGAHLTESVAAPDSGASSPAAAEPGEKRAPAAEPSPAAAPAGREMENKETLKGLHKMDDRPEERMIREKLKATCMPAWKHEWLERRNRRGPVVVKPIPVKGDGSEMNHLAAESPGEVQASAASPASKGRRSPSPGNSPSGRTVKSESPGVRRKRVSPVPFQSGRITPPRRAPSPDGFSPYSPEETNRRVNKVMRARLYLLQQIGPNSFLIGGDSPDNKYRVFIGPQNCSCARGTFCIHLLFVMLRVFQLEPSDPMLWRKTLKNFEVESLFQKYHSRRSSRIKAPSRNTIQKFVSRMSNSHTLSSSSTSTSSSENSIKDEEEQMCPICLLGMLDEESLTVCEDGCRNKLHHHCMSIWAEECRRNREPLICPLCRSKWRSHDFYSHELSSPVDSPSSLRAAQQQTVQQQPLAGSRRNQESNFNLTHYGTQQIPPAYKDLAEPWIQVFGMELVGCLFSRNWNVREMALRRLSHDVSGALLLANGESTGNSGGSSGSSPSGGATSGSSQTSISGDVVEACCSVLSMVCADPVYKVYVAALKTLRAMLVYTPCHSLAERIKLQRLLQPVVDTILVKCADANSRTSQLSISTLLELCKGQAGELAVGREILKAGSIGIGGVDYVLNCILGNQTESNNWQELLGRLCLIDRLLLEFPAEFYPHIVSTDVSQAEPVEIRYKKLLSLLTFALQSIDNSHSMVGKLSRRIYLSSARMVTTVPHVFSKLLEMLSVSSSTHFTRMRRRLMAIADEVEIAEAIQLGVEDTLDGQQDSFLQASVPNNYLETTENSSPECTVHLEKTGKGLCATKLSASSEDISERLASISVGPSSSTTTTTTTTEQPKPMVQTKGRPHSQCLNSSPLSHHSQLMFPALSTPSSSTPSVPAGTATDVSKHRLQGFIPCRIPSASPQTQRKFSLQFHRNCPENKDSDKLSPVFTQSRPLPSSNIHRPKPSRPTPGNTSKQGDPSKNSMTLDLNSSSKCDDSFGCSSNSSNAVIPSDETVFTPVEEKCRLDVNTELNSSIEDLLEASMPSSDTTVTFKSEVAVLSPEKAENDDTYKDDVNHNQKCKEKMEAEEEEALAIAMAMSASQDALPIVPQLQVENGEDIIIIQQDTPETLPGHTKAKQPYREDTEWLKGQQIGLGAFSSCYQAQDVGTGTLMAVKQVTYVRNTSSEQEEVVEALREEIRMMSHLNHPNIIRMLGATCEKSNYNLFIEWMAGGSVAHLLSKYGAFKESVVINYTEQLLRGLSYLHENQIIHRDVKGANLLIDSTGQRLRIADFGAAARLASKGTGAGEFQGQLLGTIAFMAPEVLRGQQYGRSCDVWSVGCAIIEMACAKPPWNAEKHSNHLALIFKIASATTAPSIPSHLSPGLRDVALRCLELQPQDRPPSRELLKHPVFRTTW

[9] = molecular target: Mitogen-activated protein kinase kinase kinase kinase 1 (Homo sapiens, UniProt Q92918)
[10] = molecular target: Cyclin-dependent kinase 1 (Homo sapiens, UniProt P06493)
Sequence of Cyclin-dependent kinase 1 (P06493 whole entry): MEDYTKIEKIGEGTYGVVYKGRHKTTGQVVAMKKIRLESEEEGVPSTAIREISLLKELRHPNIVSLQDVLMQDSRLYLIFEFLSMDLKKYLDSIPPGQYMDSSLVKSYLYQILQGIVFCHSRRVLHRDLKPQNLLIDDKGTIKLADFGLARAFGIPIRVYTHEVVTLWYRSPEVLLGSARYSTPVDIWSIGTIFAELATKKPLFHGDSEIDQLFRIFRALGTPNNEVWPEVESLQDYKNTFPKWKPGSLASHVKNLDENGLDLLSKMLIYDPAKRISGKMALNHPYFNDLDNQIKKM

[11] = molecular target: Eukaryotic translation initiation factor 2-alpha kinase 1 (Homo sapiens, UniProt Q9BQI3)
Sequence of Eukaryotic translation initiation factor 2-alpha kinase 1 (Q9BQI3 whole entry): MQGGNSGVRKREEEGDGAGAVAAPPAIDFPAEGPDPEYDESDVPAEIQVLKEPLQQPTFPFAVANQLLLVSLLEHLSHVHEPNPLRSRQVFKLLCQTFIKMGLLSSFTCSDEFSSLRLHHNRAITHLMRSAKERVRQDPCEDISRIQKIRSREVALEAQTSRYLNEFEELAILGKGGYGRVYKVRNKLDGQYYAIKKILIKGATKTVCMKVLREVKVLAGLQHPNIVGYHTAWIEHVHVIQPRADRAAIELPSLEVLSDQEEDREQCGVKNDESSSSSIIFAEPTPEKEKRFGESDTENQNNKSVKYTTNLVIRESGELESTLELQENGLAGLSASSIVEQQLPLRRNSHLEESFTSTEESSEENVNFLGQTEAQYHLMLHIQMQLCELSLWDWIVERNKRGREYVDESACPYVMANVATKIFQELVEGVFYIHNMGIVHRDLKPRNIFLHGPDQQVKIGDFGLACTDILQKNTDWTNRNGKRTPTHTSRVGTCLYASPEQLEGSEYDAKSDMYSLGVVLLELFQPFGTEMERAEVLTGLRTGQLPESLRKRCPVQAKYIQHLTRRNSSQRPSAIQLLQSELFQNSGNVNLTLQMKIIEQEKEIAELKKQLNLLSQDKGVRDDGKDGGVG

[12] = molecular target: Serine/threonine-protein kinase PAK 2 (Homo sapiens, UniProt Q13177)
Sequence of Serine/threonine-protein kinase PAK 2 (Q13177 whole entry): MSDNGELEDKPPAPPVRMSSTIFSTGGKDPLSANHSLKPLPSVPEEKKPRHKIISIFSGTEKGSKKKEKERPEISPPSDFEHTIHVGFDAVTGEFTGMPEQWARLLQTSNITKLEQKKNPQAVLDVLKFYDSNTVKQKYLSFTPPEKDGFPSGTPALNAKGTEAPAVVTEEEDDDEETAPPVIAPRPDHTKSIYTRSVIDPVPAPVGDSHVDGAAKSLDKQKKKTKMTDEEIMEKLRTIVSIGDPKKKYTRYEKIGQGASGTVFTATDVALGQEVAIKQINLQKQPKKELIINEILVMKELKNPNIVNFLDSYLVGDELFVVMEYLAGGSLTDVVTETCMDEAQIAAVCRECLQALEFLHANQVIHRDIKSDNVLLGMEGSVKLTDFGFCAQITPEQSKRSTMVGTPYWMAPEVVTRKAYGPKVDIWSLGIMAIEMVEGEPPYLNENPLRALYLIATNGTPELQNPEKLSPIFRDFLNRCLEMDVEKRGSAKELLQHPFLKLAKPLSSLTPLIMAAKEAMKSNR

[13] = molecular target: T3, RNA cytidine acetyltransferase (Homo sapiens, UniProt Q9H0A0)
T3 sequence (Q9H0A0 whole entry): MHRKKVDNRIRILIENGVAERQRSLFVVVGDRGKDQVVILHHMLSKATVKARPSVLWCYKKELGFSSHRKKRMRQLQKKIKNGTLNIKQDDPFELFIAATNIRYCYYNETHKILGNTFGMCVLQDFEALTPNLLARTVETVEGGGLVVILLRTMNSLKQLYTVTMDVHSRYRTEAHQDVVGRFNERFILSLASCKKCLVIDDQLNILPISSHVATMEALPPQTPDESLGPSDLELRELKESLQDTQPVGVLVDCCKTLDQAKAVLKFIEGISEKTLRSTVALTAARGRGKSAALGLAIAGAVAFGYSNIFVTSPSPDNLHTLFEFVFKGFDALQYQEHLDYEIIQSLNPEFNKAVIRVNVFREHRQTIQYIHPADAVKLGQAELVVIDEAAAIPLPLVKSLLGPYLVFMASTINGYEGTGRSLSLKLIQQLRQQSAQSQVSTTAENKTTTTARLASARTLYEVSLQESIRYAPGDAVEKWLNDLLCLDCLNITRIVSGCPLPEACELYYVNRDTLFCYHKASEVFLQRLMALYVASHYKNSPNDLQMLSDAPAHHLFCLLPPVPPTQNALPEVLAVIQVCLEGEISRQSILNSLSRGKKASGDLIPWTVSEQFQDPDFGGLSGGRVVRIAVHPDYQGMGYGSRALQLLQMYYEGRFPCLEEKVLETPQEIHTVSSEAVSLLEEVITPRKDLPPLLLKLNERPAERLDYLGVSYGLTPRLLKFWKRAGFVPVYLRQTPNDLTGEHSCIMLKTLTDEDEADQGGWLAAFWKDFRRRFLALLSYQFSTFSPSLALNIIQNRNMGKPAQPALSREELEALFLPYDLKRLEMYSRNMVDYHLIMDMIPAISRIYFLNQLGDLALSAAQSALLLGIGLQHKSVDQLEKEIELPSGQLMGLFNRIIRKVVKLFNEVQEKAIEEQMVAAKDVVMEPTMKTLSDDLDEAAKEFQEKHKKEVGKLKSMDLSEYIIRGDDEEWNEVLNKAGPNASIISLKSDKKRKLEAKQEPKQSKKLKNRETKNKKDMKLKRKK

[14] = molecular target: Casein kinase II subunit alpha' (Homo sapiens, UniProt P19784)
Sequence of Casein kinase II subunit alpha' (P19784 whole entry): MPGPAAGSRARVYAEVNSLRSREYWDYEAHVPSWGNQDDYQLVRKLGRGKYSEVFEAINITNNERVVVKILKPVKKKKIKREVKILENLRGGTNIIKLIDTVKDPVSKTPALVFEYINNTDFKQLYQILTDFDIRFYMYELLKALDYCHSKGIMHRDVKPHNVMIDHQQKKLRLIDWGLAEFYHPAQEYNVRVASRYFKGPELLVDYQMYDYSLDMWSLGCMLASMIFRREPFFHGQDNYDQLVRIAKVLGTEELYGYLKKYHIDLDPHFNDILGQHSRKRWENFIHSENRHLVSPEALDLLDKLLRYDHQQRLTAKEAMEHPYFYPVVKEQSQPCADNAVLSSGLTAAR

Sequence of Platelet-derived growth factor receptor beta (P09619 whole entry): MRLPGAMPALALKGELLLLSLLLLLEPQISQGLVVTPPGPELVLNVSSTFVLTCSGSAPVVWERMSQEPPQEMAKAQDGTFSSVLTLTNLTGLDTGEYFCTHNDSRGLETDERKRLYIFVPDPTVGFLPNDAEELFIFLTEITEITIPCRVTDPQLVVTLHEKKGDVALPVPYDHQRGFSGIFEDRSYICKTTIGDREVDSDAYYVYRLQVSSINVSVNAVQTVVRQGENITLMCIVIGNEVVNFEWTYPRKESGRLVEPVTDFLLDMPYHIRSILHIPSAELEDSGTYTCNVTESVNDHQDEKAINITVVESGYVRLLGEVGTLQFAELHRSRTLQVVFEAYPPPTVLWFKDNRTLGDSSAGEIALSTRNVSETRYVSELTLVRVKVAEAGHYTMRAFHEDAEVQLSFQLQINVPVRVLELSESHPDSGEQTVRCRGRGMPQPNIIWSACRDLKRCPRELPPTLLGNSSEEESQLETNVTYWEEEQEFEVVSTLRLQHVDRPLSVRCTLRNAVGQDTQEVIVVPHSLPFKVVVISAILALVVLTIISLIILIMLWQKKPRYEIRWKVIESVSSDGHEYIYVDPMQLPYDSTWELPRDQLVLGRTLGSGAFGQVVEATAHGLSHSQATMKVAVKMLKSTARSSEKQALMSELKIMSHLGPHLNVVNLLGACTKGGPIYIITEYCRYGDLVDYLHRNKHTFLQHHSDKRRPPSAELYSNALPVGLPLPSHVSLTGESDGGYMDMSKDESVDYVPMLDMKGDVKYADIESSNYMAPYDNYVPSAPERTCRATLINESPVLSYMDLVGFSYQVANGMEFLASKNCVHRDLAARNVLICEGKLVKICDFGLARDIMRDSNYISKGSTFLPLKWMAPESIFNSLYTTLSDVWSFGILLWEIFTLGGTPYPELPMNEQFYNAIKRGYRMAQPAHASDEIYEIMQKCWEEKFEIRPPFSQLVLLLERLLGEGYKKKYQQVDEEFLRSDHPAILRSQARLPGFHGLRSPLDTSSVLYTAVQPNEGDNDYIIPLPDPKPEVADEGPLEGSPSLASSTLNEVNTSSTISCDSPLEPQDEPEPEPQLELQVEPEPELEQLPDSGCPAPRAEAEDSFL

Row | Compound | Kd [1] | Kd [2] | Kd [3] | Kd [4] | Kd [5] | Kd [6] | Kd [7] | Kd [8] | Kd [9] | Kd [10] | Kd [11] | Kd [12] | Kd [13] | Kd [14]
1 | COc1cc2ncnc(Nc3ccc(O)cc3)c2cc1OC [WHI-P131] | > 30 µM (inactive) | > 30 µM (inactive) | > 30 µM (inactive) | > 30 µM (inactive) | > 30 µM (inactive) | > 30 µM (inactive) | > 30 µM (inactive) | > 30 µM (inactive) | > 30 µM (inactive) | > 30 µM (inactive) | > 30 µM (inactive) | > 30 µM (inactive) | > 30 µM (inactive) | > 30 µM (inactive)
2 | C=CC(=O)Nc1cc(Nc2nccc(-c3cn(C)c4ccccc34)n2)c(OC)cc1N(C)CCN(C)C [OSIMERTINIB] | > 30 µM (inactive) | > 30 µM (inactive) | > 30 µM (inactive) | 0.525 µM (active) | > 30 µM (inactive) | > 30 µM (inactive) | > 30 µM (inactive) | > 30 µM (inactive) | > 30 µM (inactive) | > 30 µM (inactive) | > 30 µM (inactive) | > 30 µM (inactive) | > 30 µM (inactive) | > 30 µM (inactive)
3 | COc1ccc2c(OCc3nnc4ccc(-c5ccccc5)nn34)ccnc2c1 [AMG-208] | > 30 µM (inactive) | > 30 µM (inactive) | > 30 µM (inactive) | > 30 µM (inactive) | > 30 µM (inactive) | > 30 µM (inactive) | > 30 µM (inactive) | > 30 µM (inactive) | > 30 µM (inactive) | > 30 µM (inactive) | > 30 µM (inactive) | > 30 µM (inactive) | > 30 µM (inactive) | > 30 µM (inactive)
4 | COc1cccc2cc(-c3nc([C@H]4CC[C@H](C(=O)O)CC4)n4ncnc(N)c34)[nH]c12 [OSI-027] | > 30 µM (inactive) | > 30 µM (inactive) | > 30 µM (inactive) | > 30 µM (inactive) | > 30 µM (inactive) | > 30 µM (inactive) | > 30 µM (inactive) | > 30 µM (inactive) | > 30 µM (inactive) | > 30 µM (inactive) | > 30 µM (inactive) | > 30 µM (inactive) | > 30 µM (inactive) | 1.6 µM (active)
5 | O=C(NC[C@H](O)CO)c1ccncc1Nc1ccc(I)cc1F [PIMASERTIB] | > 30 µM (inactive) | > 30 µM (inactive) | > 30 µM (inactive) | > 30 µM (inactive) | > 30 µM (inactive) | > 30 µM (inactive) | > 30 µM (inactive) | > 30 µM (inactive) | > 30 µM (inactive) | > 30 µM (inactive) | > 30 µM (inactive) | > 30 µM (inactive) | > 30 µM (inactive) | > 30 µM (inactive)
6 | O=c1[nH]c([C@@H]2CCCN2)nc2c1oc1ccc(Cl)cc12 | > 30 µM (inactive) | > 30 µM (inactive) | > 30 µM (inactive) | > 30 µM (inactive) | > 30 µM (inactive) | > 30 µM (inactive) | > 30 µM (inactive) | > 30 µM (inactive) | > 30 µM (inactive) | > 30 µM (inactive) | > 30 µM (inactive) | > 30 µM (inactive) | > 30 µM (inactive) | 0.022 µM (active)
7 | COc1ccc(-c2ccc3ncc4c(c3c2)n(-c2ccc(N3CCNCC3)c(C(F)(F)F)c2)c(=O)n4C)cn1 [BGT-226 FREE BASE] | > 30 µM (inactive) | > 30 µM (inactive) | > 30 µM (inactive) | > 30 µM (inactive) | > 30 µM (inactive) | > 30 µM (inactive) | > 30 µM (inactive) | > 30 µM (inactive) | > 30 µM (inactive) | > 30 µM (inactive) | > 30 µM (inactive) | > 30 µM (inactive) | > 30 µM (inactive) | 8.49 µM (active)
8 | O=S(=O)(c1cccc2c(O)nccc12)N1CCCNCC1 [HYDROXYFASUDIL] | > 30 µM (inactive) | > 30 µM (inactive) | > 30 µM (inactive) | > 30 µM (inactive) | > 30 µM (inactive) | > 30 µM (inactive) | > 30 µM (inactive) | > 30 µM (inactive) | > 30 µM (inactive) | > 30 µM (inactive) | > 30 µM (inactive) | > 30 µM (inactive) | > 30 µM (inactive) | > 30 µM (inactive)
9 | CC(C)CC(=O)Nc1[nH]nc2c1CN(C(=O)C1CCN(C)CC1)C2(C)C [PHA-793887] | > 30 µM (inactive) | > 30 µM (inactive) | > 30 µM (inactive) | > 30 µM (inactive) | > 30 µM (inactive) | > 30 µM (inactive) | > 30 µM (inactive) | > 30 µM (inactive) | > 30 µM (inactive) | 2.56 µM (active) | > 30 µM (inactive) | > 30 µM (inactive) | > 30 µM (inactive) | > 30 µM (inactive)
